This test deals with human PSMA (Homo sapiens (Human), UniProt Q04609). Nature of the test: Enzymatic assay for in vitro evaluation of PSMA inhibitors (fluorescent assay of PSMA activity, NAAG substrate, OPA detection of glutamate). It is filed as biochemical.

Structures are written as SMILES. Some results are limits rather than exact numbers.

Sequence of human PSMA (Q04609 whole entry): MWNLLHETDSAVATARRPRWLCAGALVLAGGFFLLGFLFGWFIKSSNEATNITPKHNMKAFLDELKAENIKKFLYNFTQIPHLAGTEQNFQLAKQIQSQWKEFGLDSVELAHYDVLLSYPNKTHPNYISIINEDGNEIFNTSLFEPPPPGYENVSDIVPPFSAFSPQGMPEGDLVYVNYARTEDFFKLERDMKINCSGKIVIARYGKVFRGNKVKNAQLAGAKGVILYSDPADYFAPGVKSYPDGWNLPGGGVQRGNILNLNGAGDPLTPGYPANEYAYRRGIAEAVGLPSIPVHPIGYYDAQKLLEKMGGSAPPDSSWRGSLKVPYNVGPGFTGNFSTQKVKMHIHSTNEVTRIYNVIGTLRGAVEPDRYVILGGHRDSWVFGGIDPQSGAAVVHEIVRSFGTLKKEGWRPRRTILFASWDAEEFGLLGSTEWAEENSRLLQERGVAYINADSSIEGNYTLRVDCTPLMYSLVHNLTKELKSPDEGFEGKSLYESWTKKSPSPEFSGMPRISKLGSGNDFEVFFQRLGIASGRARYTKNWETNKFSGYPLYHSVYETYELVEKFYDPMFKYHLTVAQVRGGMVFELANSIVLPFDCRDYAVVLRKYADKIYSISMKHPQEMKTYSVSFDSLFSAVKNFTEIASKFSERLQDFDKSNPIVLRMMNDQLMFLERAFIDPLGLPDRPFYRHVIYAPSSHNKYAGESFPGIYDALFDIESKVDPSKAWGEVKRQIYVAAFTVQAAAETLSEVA

Usually Ki stands for a measure of affinity in units of concentration, obtained from inhibition or displacement. Read a low Ki as tighter binding. For the compound `O=C(O)CC[C@H](NC(=O)N[C@@H](Cc1ccc(NC(=O)c2ccc(F)cc2)cc1)C(=O)O)C(=O)O` [P241], the Ki was 0.00038 µM and the “PSMA Blkg % (1.0 μM)” value was 94%.

On to `O=C(O)CC[C@H](NC(=O)N[C@@H](CCCCNc1cc(NCCOCCn2cc(CCCF)nn2)ncn1)C(=O)O)C(=O)O` [P271, (S)-2-(3-((S)-1-Carboxy-5-((6-((2-(2-(4-(3-fluoropropyl)-1H-1,2,3-triazol-1-yl)ethoxy)ethyl)amino)pyrimidin-4-yl)amino)pentyl)ureido)pentanedioic Acid], for which the inhibitory constant (Ki) is 0.0008 µM and the “PSMA Blkg % (1.0 μM)” value is 98%.

As for `CN(C(=O)N[C@@H](CCC(=O)O)C(=O)O)[C@@H](CCCCNC(=O)CCCCCn1cc(CCCF)nn1)C(=O)O` [P080, (S)-2-(3-((S)-1-Carboxy-5-(6-(4-(3-fluoropropyl)-1H-1,2,3-triazol-1-yl)-hexamido)pentyl)-3-methylureido)pentanedioic Acid], the “PSMA Blkg % (10 μM)” value (compound at 10 μM) stood at 90%.

`CC(F)C(=O)Nc1ccc(C(=O)NCCCC[C@@H](C(=O)O)N(O)C(=O)N[C@@H](CCC(=O)O)C(=O)O)cc1` (stereo partly drawn) [P157, (2S)-2-(3-((1S)-1-Carboxy-5-(4-(2-fluoropropanamido)benzamido)pentyl)-3-hydroxyureido)pentanedioic Acid] returned a Ki of over 0.313 µM. Further, the “PSMA Blkg % (10 μM)” value (compound at 10 μM) came out at 79%.

Compound `CN(C(=O)N[C@@H](CCC(=O)O)C(=O)O)[C@@H](CCCCNC(=O)c1ccc(-n2cc(CCCF)nn2)cc1)C(=O)O` [P053, (S)-2-(3-((S)-1-Carboxy-5-(4-(4-(3-fluoropropyl)-1H-1,2,3-triazol-1-yl)benzamido)pentyl)-3-methylureido)pentanedioic Acid] came in with a Ki of 0.0313 µM. Besides, the “PSMA Blkg % (10 μM)” value (compound at 10 μM) stood at 94%.

`O=C(O)CC[C@H](NC(=O)C[C@@H](NC(=O)CCCNC(=O)c1cc(C(=O)NCCCC(=O)N[C@H](CC(=O)N[C@@H](CCC(=O)O)C(=O)O)C(=O)O)cc([N+](=O)[O-])c1)C(=O)O)C(=O)O` [P298, (2S,2′S)-2,2′-(((3R,3′R)-3,3′-((4,4′-((5-Nitroisophthaloyl)bis(azanediyl))bis(butanoyl))-bis(azanediyl))bis(3-carboxypropanoyl))bis(azanediyl))dipentanedioic Acid]: the “PSMA Blkg % (1.0 μM)” value amounted to 88%.

For `C[C@H](NC(=O)N[C@@H](CCC(=O)O)C(=O)O)C(=O)O` [P025, (S)-2-(3-((S)-1-Carboxyethyl)ureido)pentanedioic Acid], where the note is “compound at 10 μM”, the “PSMA Blkg % (10 μM)” value worked out at 92%.

In turn, `O=C(O)CC[C@H](NC(=O)N(O)C(CCCCNC(=O)OCc1ccccc1)C(=O)O)C(=O)O` (stereo partly drawn) [P069, (13S)-10-Hydroxy-3,11-dioxo-1-phenyl-2-oxa-4,10,12-triazapentadecane-9,13,15-tricarboxylic Acid] had a Ki of 0.25 µM. The “PSMA Blkg % (10 μM)” value (compound at 10 μM) is 94%.

As for `CC(F)C(=O)Nc1ccc(C(=O)NCCCC[C@H](NC(=O)N(O)[C@@H](CCC(=O)O)C(=O)O)C(=O)O)cc1` (stereo partly drawn) [P186, (S)-2-(3-((S)-1-Carboxy-5-(4-(2-fluoropropanamido)benzamido)pentyl)-1-hydroxyureido)pentanedioic Acid], the “PSMA Blkg % (10 μM)” value (compound at 10 μM) is 85%.

Regarding `O=C(O)CC[C@H](NC(=O)N(CC(=O)O)NC(=O)Cc1ccccc1)C(=O)O` [P011, (S)-2-(1-(Carboxymethyl)-2-(2-phenylacetyl)hydrazinecarboxamido)pentanedioic Acid], the “PSMA Blkg % (10 μM)” value (compound at 10 μM) is recorded as 0%.

The compound `O=C(O)CC[C@H](NC(=O)N[C@@H](COCc1ccccc1)C(=O)O)C(=O)O` [P204, (S)-2-(3-((S)-2-(Benzyloxy)-1-carboxyethyl)ureido)pentanedioic Acid] gave a Ki of 0.0069 µM. Also, the “PSMA Blkg % (10 μM)” value (10 μM) was 98%.

On to `CCS(=O)(=O)N(CCc1ccccc1)CC(=O)NC(CCC(=O)O)C(=O)O` (stereo not drawn) [P052, 2-(2-(N-Phenethylethylsulfonamido)acetamido)pentanedioic Acid], for which the “PSMA Blkg % (10 μM)” value (compound at 10 μM) amounted to 2%.

For `CN(C(=O)N[C@@H](CCC(=O)O)C(=O)O)[C@@H](CCCCNC(=O)CCCc1ccc(-n2cc(CCCF)nn2)cc1)C(=O)O` [P103], the inhibition constant (Ki) came to 0.235 µM. For the setting “compound at 10 μM”, the “PSMA Blkg % (10 μM)” value is listed as 91%.

In the case of `O=C(O)CC[C@H](NC(=O)N(O)[C@@H](CCCNC(=O)OCc1ccccc1)C(=O)O)C(=O)O` [P139, (8S,12S)-9-Hydroxy-3,10-dioxo-1-phenyl-2-oxa-4,9,11-triazatetradecane-8,12,14-tricarboxylic Acid], the “PSMA Blkg % (10 μM)” value (compound at 10 μM) is given as 16%.

With `C[C@@](Cc1cccc(NC(=O)CCCn2cc(CCCF)nn2)c1)(NC(=O)N[C@@H](CCC(=O)O)C(=O)O)C(=O)O` [P255, (S)-2-(3-((S)-2-Carboxy-1-(3-(4-(4-(3-fluoropropyl)-1H-1,2,3-triazol-1-yl)butanamido)-phenyl)propan-2-yl)ureido)pentanedioic Acid], the “PSMA Blkg % (1.0 μM)” value was 62%.

Take `O=C(O)CCC(CP(=O)(O)OCCC1CCN(C(=O)CCc2ccc(-n3cc(CCCF)nn3)cc2)CC1)C(=O)O` (stereo not drawn) [P225, 2-(((2-(1-(3-(4-(4-(3-Fluoropropyl)-1H-1,2,3-triazol-1-yl)phenyl)propanoyl)piperidin-4-yl)ethoxy)(hydroxy)phosphoryl)methyl)pentanedioic Acid]: the “PSMA Blkg % (1.0 μM)” value was found to be 7%.

For `O=C(O)CC[C@H](NC(=O)N[C@@H](Cc1ccc(NC(=O)Cn2cc(CCCF)nn2)cc1)C(=O)O)C(=O)O` [P217, (S)-2-(3-((S)-1-Carboxy-2-(4-(4-(4-(3-fluoropropyl)-1H-1,2,3-triazol-1-yl)-acetamido)-phenyl)ethyl)ureido)pentanedioic Acid], the affinity corresponds to a Ki of 0.0313 µM. Further, the “PSMA Blkg % (10 μM)” value (10 μM) was found to be 96%.

Turning to `O=C(O)CC[C@H](NC(=O)N[C@@H](CCCCNC(=O)c1cc(NC(=O)Cn2cc(CCCF)nn2)cc(C(=O)NCCCC[C@H](NC(=O)N[C@@H](CCC(=O)O)C(=O)O)C(=O)O)c1)C(=O)O)C(=O)O` [P283, (2S,2′S)-2,2′-(((((1S,1′S)-((5-(2-(4-(3-fluoropropyl)-1H-1,2,3-triazol-1-yl)acetamido)isophthaloyl)bis(azanediyl))bis(1-carboxypentane-5,1-diyl))bis(azanediyl))bis(carbonyl))bis(azanediyl))dipentanedioic Acid], the Ki was 0.0009 µM and the “PSMA Blkg % (1.0 μM)” value is 98%.

In the case of `CN(C(=O)N[C@@H](CCC(=O)O)C(=O)O)[C@@H](CCCCNC(=O)Cn1cc(Cn2ccnc2[N+](=O)[O-])nn1)C(=O)O` [P044, (S)-2-(3-((S)-1-Carboxy-5-(2-(4-2((2-nitro-1H-imidazo-1-yl)methyl)-1H-1,2,3-triazol-1-yl)acetamido)pentyl)-3-methylureido)pentanedioic Acid], the “PSMA Blkg % (10 μM)” value (compound at 10 μM) amounted to 62%.

Take `O=C(O)CC[C@@H](C(=O)O)N1C(=O)CC(=O)N([C@@H](CCCCNS(=O)(=O)c2ccc([N+](=O)[O-])cc2)C(=O)O)C1=O` [P128, (S)-2-(3-((S)-1-Carboxy-5-(4-nitrophenylsulfonamido)pentyl)-2,4,6-trioxotetrahydropyrimidin-1(2H)-yl)pentanedioic Acid]: for the setting “compound at 10 μM”, the “PSMA Blkg % (10 μM)” value came to 12%.

On to `O=C(Nc1cc(C(=O)O)cc(C(=O)O)c1)N[C@@H](Cc1ccc(OCCF)cc1)C(=O)O` [P006, (S)-5-(3-(1-Carboxy-2-(4-(2-fluoroethoxy)phenyl)ethyl)ureido)isophthalic Acid], for which the “PSMA Blkg % (10 μM)” value (compound at 10 μM) amounted to 0%.

For the origin of these results see patent publication US10894807B2 (Siemens Medical Solutions USA, Inc., priority 2011, dated 2021).
